≈ marks a conversion by molar mass, not a printed value.
Tests used:
[1] = target: T1, Phosphatidylinositol 4,5-bisphosphate 3-kinase catalytic subunit alpha isoform (Homo sapiens, UniProt P42336); experiment: Inhibition of PIK3CA-mediated cell signaling in PTEN-deficient human U87MG cells assessed as inhibition of insulin-induced pAkt/PKB phosphorylation at Thr308 treated for 15 mins before insulin challenge measured after 5 mins by immunoblotting; format: cell-based, U-87MG ATCC
[2] = target: T1, Phosphatidylinositol 4,5-bisphosphate 3-kinase catalytic subunit alpha isoform; experiment: Inhibition of PIK3CA-mediated cell signaling in PTEN-deficient human U87MG cells assessed as inhibition of insulin-induced pAkt/PKB phosphorylation at Ser473 treated for 15 mins before insulin challenge measured after 5 mins by immunoblotting; format: cell-based, U-87MG ATCC
[3] = Inhibition of bovine recombinant PI3K p110delta expressed in Sf21 insect cells using phosphatidylinositol as substrate after 1 hr by phosphoimaging; parameters: species or system Bos taurus
[4] = target: T2, Phosphatidylinositol 4,5-bisphosphate 3-kinase catalytic subunit beta isoform (Homo sapiens, UniProt P42338); experiment: Inhibition of human recombinant PI3K p110beta expressed in Sf21 insect cells using phosphatidylinositol as substrate after 1 hr by phosphoimaging
[5] = target: Phosphatidylinositol 4,5-bisphosphate 3-kinase catalytic subunit alpha isoform (Mus musculus, UniProt P42337); experiment: Inhibition of mouse recombinant PI3K p110alpha expressed in Sf21 insect cells using phosphatidylinositol as substrate after 1 hr by phosphoimaging
cells [6] = settings: Homo sapiens, HCT-116
cells [7] = settings: Homo sapiens, HCT-116; remark: listed apart in the source
cells [8] = settings: Homo sapiens, NZOV9
cells [9] = settings: Homo sapiens, NZB5
[10] = Aqueous solubility of the compound in water after 15 mins by HPLC analysis; settings: aqueous medium
[11] = Antitumor activity in PTEN-deficient human U87MG xenografted in Rag1-/- mouse assessed as inhibition of tumor growth at 40 mg/kg, ip qd for 10 days measured after 10 days (reference value: 18.5 +/- 3.4%); format: functional, U-87MG ATCC; settings: U-87 MG, 240 h, read-out: GI, route intraperitoneal
[12] = Half life in CD1 mouse at 10 mg/kg, ip administered as single dose by LC-MS/MS analysis; format: ADME, organism-based; parameters: dose 10 mg/kg, route intraperitoneal; settings: in vivo
[13] = AUC (infinity) in CD1 mouse at 10 mg/kg, ip administered as single dose by LC-MS/MS analysis; format: ADME, organism-based; parameters: time infinity, dose 10 mg/kg, route intraperitoneal; settings: plasma
[14] = Tmax in CD1 mouse at 10 mg/kg, ip administered as single dose by LC-MS/MS analysis; format: ADME, organism-based; parameters: dose 10 mg/kg, route intraperitoneal; settings: in vivo
[15] = Cmax in CD1 mouse at 10 mg/kg, ip administered as single dose by LC-MS/MS analysis; format: ADME, organism-based; parameters: dose 10 mg/kg, route intraperitoneal; settings: in vivo
Mus musculus [16] = experiment: Toxicity in PTEN-deficient human U87MG cells xenografted Rag1-/- mouse assessed as body weight loss at 40 mg/kg, ip qd for 10 days; format: organism-based, U-87MG ATCC; parameters: dose 40 mg/kg, route intraperitoneal; settings: in vivo, 240 h
[17] = target: Phosphatidylinositol 4,5-bisphosphate 3-kinase catalytic subunit alpha isoform (Homo sapiens, UniProt P42336, E545K); experiment: Inhibition of human PI3K p110alpha helical domain E545K mutant after 2 hrs by HTRF assay
[18] = target: Phosphatidylinositol 4,5-bisphosphate 3-kinase catalytic subunit alpha isoform (Homo sapiens, UniProt P42336, H1047R); experiment: Inhibition of human His-tagged PI3K p110alpha H1047R mutant after 2 hrs by HTRF assay
[19] = target: Phosphatidylinositol 4,5-bisphosphate 3-kinase catalytic subunit gamma isoform (Homo sapiens, UniProt P48736); experiment: Inhibition of human His-tagged PI3K p110gamma after 2 hrs by HTRF assay
[20] = target: T3, Phosphatidylinositol 4,5-bisphosphate 3-kinase catalytic subunit delta isoform (Homo sapiens, UniProt O00329); experiment: Inhibition of human His-tagged PI3K p110delta after 2 hrs by HTRF assay
T3 sequence (O00329 whole entry): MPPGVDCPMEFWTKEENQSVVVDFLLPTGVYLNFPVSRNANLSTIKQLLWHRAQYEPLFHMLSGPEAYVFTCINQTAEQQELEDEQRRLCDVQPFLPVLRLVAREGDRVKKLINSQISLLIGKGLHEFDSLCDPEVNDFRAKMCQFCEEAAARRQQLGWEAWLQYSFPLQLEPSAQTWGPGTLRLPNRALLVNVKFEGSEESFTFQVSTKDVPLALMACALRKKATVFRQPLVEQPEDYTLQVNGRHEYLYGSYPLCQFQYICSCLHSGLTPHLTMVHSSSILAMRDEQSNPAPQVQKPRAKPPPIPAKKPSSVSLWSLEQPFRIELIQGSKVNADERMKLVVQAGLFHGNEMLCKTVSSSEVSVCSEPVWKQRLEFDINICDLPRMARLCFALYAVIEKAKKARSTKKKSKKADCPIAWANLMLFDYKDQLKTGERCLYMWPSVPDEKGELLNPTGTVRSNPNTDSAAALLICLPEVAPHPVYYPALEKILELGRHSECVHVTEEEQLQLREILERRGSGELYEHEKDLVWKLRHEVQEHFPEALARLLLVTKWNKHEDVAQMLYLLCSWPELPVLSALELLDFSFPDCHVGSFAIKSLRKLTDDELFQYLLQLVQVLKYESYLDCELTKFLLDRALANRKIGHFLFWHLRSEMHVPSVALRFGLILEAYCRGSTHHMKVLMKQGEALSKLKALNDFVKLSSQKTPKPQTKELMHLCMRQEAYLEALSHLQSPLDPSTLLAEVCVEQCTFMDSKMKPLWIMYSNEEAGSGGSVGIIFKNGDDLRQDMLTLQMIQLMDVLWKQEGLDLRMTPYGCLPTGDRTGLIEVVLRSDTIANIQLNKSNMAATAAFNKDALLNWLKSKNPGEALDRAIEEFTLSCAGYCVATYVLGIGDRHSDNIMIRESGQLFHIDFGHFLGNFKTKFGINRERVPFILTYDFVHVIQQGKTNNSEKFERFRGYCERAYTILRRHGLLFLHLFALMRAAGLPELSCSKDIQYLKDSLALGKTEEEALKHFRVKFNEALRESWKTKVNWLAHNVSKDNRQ

[21] = target: T2, Phosphatidylinositol 4,5-bisphosphate 3-kinase catalytic subunit beta isoform; experiment: Inhibition of human His-tagged PI3K p110beta after 2 hrs by HTRF assay
[22] = target: T1, Phosphatidylinositol 4,5-bisphosphate 3-kinase catalytic subunit alpha isoform; experiment: Inhibition of human His-tagged PI3K p110alpha after 2 hrs by HTRF assay
Mus musculus [23] = experiment: Toxicity in PTEN-deficient human U87MG cells xenografted Rag1-/- mouse assessed as delayed body weight loss at 50 mg/kg, ip qd for 10 days; format: organism-based, U-87MG ATCC; parameters: dose 50 mg/kg, route intraperitoneal; settings: in vivo, 240 h
[24] = Antitumor activity in PTEN-deficient human U87MG xenografted in Rag1-/- mouse assessed as inhibition of tumor growth at 15 mg/kg, ip qd for 10 days measured after 10 days (reference value: 18.5 +/- 3.4%); format: functional, U-87MG ATCC; settings: U-87 MG, 240 h, route intraperitoneal, read-out: GI
Mus musculus [25] = experiment: Toxicity in PTEN-deficient human U87MG cells xenografted Rag1-/- mouse assessed as body weight loss at 15 mg/kg, ip qd for 10 days; format: organism-based, U-87MG ATCC; parameters: dose 15 mg/kg, route intraperitoneal; settings: in vivo, 240 h

Chain of Phosphatidylinositol 4,5-bisphosphate 3-kinase catalytic subunit alpha isoform (Homo sapiens, UniProt P42336, H1047R) (P42336 whole entry H1047R, canonical isoform): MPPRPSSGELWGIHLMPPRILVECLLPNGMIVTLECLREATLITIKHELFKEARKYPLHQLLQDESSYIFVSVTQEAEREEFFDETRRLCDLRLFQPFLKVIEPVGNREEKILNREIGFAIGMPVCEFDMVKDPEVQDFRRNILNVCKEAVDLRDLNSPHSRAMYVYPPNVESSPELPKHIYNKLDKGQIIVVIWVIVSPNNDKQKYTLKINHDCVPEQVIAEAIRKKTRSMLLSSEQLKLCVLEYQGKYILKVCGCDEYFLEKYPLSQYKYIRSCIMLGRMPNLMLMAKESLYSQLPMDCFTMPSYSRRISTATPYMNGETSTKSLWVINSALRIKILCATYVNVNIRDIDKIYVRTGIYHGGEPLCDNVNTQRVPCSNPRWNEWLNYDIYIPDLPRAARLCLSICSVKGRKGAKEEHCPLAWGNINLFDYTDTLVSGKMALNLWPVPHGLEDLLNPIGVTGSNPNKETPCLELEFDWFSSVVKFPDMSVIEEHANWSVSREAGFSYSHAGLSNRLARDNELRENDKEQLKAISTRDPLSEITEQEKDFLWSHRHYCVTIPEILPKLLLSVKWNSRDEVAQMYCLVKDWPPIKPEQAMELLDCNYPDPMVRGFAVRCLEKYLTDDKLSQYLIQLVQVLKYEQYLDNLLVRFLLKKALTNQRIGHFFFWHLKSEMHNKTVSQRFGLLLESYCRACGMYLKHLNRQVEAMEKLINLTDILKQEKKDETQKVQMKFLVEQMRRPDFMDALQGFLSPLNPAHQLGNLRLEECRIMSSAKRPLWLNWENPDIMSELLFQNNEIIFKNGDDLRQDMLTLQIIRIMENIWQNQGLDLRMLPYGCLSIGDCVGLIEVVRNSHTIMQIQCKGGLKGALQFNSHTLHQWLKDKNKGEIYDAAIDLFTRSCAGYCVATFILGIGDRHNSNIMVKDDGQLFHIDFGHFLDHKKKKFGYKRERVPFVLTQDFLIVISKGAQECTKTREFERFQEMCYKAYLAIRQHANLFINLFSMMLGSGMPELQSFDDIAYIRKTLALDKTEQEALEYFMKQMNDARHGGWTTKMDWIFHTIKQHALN
Chain of Phosphatidylinositol 4,5-bisphosphate 3-kinase catalytic subunit gamma isoform (P48736 whole entry, canonical isoform): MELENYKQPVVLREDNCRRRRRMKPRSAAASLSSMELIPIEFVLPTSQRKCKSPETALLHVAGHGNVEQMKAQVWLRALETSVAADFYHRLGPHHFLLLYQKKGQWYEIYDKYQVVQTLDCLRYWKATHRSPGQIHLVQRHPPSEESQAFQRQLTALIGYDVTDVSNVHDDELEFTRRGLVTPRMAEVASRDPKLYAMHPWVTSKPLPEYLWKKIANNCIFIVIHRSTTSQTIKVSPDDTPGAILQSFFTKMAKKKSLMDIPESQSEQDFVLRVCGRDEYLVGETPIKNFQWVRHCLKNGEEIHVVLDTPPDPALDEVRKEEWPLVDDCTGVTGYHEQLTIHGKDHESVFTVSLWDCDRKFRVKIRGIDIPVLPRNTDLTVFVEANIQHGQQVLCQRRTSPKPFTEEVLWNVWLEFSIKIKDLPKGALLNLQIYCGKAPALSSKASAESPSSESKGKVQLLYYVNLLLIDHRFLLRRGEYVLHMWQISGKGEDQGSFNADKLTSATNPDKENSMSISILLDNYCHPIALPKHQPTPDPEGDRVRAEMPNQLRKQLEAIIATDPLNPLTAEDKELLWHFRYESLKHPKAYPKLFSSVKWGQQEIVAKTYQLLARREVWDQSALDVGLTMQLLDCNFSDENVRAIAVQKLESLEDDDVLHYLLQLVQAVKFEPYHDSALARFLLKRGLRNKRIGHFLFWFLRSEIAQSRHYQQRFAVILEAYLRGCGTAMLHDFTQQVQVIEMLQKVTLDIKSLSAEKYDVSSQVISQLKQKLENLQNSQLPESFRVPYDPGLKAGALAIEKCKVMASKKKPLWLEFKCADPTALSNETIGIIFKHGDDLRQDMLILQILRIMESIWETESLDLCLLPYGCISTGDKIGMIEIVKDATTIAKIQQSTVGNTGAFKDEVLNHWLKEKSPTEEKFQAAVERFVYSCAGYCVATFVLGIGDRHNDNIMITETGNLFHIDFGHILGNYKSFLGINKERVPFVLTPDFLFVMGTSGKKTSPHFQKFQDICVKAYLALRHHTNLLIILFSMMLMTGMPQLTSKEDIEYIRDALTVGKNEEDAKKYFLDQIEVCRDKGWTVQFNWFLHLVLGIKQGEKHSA
Chain of Phosphatidylinositol 4,5-bisphosphate 3-kinase catalytic subunit alpha isoform (Mus musculus, UniProt P42337) (P42337 whole entry, canonical isoform): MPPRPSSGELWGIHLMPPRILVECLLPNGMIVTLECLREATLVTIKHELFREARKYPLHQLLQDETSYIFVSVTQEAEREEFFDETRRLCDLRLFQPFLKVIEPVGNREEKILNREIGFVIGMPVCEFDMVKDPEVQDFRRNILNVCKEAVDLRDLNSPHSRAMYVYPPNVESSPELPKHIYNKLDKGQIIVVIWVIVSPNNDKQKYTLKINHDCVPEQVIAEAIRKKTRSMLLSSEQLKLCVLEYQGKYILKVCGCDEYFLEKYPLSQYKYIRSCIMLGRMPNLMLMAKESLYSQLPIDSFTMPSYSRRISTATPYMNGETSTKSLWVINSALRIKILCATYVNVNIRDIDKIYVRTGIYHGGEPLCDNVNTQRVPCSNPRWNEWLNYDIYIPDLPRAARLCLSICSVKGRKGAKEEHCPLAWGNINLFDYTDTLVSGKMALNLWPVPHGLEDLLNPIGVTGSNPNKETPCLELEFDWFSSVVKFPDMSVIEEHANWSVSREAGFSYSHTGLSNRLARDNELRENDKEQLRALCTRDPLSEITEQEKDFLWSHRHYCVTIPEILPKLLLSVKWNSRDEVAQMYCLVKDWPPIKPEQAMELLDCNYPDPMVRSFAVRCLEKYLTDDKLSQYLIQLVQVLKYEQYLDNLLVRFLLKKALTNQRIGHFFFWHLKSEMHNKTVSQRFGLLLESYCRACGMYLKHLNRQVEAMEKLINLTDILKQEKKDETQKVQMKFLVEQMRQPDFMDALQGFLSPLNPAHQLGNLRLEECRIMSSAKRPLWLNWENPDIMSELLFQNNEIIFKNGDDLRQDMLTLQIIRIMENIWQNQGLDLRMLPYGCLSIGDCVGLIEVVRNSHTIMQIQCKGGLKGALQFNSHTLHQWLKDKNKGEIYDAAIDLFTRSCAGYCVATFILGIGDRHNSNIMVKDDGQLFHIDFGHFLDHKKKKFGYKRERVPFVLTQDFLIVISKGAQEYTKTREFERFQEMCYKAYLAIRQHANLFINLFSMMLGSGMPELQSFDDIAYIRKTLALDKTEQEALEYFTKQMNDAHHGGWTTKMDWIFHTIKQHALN
T2 sequence (P42338 whole entry, canonical isoform): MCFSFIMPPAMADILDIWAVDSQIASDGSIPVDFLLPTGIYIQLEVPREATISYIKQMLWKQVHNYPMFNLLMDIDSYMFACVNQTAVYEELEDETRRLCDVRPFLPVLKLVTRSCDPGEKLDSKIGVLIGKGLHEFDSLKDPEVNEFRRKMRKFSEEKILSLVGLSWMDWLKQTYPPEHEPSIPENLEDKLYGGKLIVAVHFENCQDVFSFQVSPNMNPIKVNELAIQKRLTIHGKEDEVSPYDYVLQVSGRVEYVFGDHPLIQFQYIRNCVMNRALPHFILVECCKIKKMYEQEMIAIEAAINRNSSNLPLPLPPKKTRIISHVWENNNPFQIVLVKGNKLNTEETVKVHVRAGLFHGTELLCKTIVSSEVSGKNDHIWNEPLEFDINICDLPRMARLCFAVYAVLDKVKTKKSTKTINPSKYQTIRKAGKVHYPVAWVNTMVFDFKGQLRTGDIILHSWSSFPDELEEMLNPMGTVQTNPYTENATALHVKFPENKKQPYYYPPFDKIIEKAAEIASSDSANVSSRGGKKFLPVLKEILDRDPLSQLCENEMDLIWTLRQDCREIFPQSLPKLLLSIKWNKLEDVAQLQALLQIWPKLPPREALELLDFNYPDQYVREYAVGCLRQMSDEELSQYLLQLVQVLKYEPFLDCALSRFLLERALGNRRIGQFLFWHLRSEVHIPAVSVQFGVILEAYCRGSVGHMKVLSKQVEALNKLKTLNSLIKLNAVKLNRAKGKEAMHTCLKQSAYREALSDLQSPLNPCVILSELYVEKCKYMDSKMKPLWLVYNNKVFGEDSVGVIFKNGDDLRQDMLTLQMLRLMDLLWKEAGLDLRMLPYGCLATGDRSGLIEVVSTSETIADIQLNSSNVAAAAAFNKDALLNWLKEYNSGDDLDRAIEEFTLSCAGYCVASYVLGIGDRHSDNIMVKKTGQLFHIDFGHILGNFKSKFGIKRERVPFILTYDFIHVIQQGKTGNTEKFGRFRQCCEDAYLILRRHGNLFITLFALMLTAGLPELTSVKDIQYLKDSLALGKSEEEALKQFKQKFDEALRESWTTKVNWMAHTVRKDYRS
T1 sequence (P42336 whole entry, canonical isoform): as the sequence (P42336 whole entry H1047R, canonical isoform) above, with R1047H counted along it
Chain of Phosphatidylinositol 4,5-bisphosphate 3-kinase catalytic subunit alpha isoform (Homo sapiens, UniProt P42336, E545K) (P42336 whole entry E545K, the tested form may be a part, canonical isoform): as the sequence (P42336 whole entry H1047R, canonical isoform) above, with E545K, R1047H counted along it

Compound	IC50 [4] [nM]	IC50 [5] [nM]	IC50 (cells [6]) [nM]	IC50 (cells [7]) [nM]	IC50 (cells [8]) [nM]	IC50 (cells [9]) [nM]	solubility at […] [10] [µg/mL]	IC50 [3] [nM]	also measured
CS(=O)(=O)O.Cn1c(=O)n(-c2ccc(C(C)(C)C#N)cc2)c2c3cc(-c4cnc5ccccc5c4)ccc3ncc21	–	–	–	–	–	–	11.3	–	–
FC(F)c1nc2ccccc2n1-c1nc(N2CCOCC2)nc(N2CCOCC2)n1 [ZSTK-474]	–	–	78	97	–	–	0.61 (≈ 1.46 µM)	–	inhibition in vivo at 40 mg/kg [11]: 65.3%; half-life [12]: 1.52 h; AUC(0-inf) [13]: 9.66 µM·h; Tmax [14]: 2 h; Cmax [15]: 2360 nM; Activity (Mus musculus [16]): Non-toxic
FC(F)Oc1cccc2c1nc(C(F)F)n2-c1nc(N2CCOCC2)nc(N2CCOCC2)n1	56	26	381	415	28	47	–	7.4	IC50 [1]: 418 nM; IC50 [2]: 427 nM; IC50 [17]: 3 nM; IC50 [18]: 8.5 nM; IC50 [19]: 56 nM; IC50 [20]: 34 nM; IC50 [21]: > 2500 nM; IC50 [22]: 4.7 nM
COc1cc(N)cc2c1nc(C(F)F)n2-c1nc(N2CCOCC2)nc(N2CCOCC2)n1.CS(=O)(=O)O	–	–	–	–	–	–	4.2	–	–
CNC(=O)c1cccc2c1nc(C(F)F)n2-c1nc(N2CCOCC2)nc(N2CCOCC2)n1	> 1000	296	–	–	50	480	–	1000	–
Cn1c(=O)n(-c2ccc(C(C)(C)C#N)cc2)c2c3cc(-c4cnc5ccccc5c4)ccc3ncc21 [DACTOLISIB]	–	–	–	–	–	–	–	–	inhibition in vivo at 15 mg/kg [24]: 31.5%; Activity (Mus musculus [25]): Non-toxic
CSCc1nc2ccccc2n1-c1nc(N2CCOCC2)nc(N2CCOCC2)n1	39	170	–	–	86	83	–	41	–

Further lines, with some results ahead:

IC50 [4] [nM]	IC50 [5] [nM]	IC50 (cells [6]) [nM]	IC50 (cells [7]) [nM]	IC50 (cells [8]) [nM]	IC50 (cells [9]) [nM]	solubility at […] [10] [µg/mL]	Compound	IC50 [3] [nM]	also measured
25	2.7	25	37	10	50	0.08 (≈ 0.179 µM)	COc1cccc2c1nc(C(F)F)n2-c1nc(N2CCOCC2)nc(N2CCOCC2)n1	3.9	IC50 [1]: 28 nM; IC50 [2]: 55 nM
0.68	0.9	0.18	8.3	10	30	0.32 (≈ 0.738 µM)	Oc1cccc2c1nc(C(F)F)n2-c1nc(N2CCOCC2)nc(N2CCOCC2)n1	0.27	half-life [12]: 1.55 h; AUC(0-inf) [13]: 1.03 µM·h; Tmax [14]: 0.25 h; Cmax [15]: 628 nM; IC50 [1]: 2.9 nM; IC50 [2]: 1.3 nM; IC50 [17]: 0.12 nM; IC50 [18]: 0.83 nM; IC50 [19]: 6 nM; IC50 [20]: 0.65 nM; IC50 [21]: 3.5 nM; IC50 [22]: 0.53 nM
–	–	–	12	–	–	–	COc1cc(N)cc2c1nc(C(F)F)n2-c1nc(N2CCOCC2)nc(N2CCOCC2)n1	–	half-life [12]: 1.48 h; AUC(0-inf) [13]: 5.22 µM·h; Tmax [14]: 0.083 h; Cmax [15]: 3450 nM; Activity (Mus musculus [23]): Toxic
6.7	37	515	507	130	334	–	COc1ccc2c(nc(C(F)F)n2-c2nc(N3CCOCC3)nc(N3CCOCC3)n2)c1O	0.3	IC50 [1]: 378 nM; IC50 [2]: 583 nM; IC50 [17]: 49 nM; IC50 [18]: 158 nM; IC50 [19]: 52 nM; IC50 [20]: 2 nM; IC50 [21]: 44 nM; IC50 [22]: 70 nM
570	294	–	–	130	170	–	CS(=O)(=O)Oc1cccc2c1nc(C(F)F)n2-c1nc(N2CCOCC2)nc(N2CCOCC2)n1	158	–
118	58	–	–	59	95	–	COc1cc(OC)c2nc(C(F)F)n(-c3nc(N4CCOCC4)nc(N4CCOCC4)n3)c2c1	12.5	–
18.5	8	–	–	150	130	–	COc1cc(N(C)C)cc2c1nc(C(F)F)n2-c1nc(N2CCOCC2)nc(N2CCOCC2)n1	6.8	–
801	335	–	–	36	20	–	COc1ccc2c(nc(C(F)F)n2-c2nc(N3CCOCC3)nc(N3CCOCC3)n2)c1OC	258	–
47	550	–	–	40	130	–	FC(F)c1nc2c3c(ccc2n1-c1nc(N2CCOCC2)nc(N2CCOCC2)n1)OCO3	39	–
